# Results taken from paper PMC7414322 (Bioorganic & Medicinal Chemistry Letters, 2020).
# Where two headings read alike, the source gives them in different places.
# Columns and labels:
# in vivo = settings: rat, po, 5 mg/kg
# hERG = hERG (Homo sapiens, UniProt Q12809)
# [1] = mouse, microsomes
# [2] = human, microsomes
# Sequence of hERG (Q12809 whole entry): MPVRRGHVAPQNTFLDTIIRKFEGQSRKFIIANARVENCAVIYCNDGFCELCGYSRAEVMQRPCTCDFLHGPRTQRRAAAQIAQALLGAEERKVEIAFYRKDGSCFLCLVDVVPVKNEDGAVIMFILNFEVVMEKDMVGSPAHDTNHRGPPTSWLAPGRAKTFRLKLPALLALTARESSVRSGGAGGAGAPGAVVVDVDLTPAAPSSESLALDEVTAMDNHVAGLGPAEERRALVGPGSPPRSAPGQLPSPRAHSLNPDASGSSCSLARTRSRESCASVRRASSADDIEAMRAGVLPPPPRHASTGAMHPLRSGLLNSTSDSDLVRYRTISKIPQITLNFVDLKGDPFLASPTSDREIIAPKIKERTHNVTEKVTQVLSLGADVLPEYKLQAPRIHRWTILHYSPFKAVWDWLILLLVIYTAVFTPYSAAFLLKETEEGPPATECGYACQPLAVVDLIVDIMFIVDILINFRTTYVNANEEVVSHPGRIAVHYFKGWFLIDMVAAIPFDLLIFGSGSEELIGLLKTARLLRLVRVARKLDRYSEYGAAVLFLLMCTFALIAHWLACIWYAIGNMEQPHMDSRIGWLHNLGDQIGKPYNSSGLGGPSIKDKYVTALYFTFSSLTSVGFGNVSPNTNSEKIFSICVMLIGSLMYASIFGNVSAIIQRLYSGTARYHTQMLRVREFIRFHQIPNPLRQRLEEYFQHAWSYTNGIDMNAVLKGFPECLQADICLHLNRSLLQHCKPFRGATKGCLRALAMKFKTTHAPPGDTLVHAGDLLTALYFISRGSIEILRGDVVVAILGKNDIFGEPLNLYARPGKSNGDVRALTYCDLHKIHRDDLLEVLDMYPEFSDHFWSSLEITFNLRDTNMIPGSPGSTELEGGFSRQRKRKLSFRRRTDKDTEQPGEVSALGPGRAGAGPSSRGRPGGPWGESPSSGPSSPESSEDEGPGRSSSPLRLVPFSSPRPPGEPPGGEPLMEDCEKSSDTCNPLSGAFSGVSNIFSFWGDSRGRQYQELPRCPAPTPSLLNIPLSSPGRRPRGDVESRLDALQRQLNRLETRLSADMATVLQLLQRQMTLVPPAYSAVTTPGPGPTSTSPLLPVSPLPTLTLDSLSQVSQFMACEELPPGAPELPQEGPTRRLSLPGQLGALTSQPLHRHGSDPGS
compound,measurement,setting,value
N#Cc1ccccc1CNc1ccc2ncnc(Nc3ccc(C(F)(F)F)cc3)c2c1 [Compound 31],"Inhibitory effect on MERS-CoV infection, in words",MERS-CoV,decreased potency
Fc1ccc(Nc2ncnc3ccc(NC4CCCCC4)cc23)cc1Cl [Compound 25],"Inhibitory effect on MERS-CoV infection, in words",MERS-CoV,little inhibitory effects
COc1cccc(CNc2ccc3ncnc(Nc4ccc(C(F)(F)F)cc4)c3c2)c1 [Compound 11],"Inhibitory effect on MERS-CoV infection, in words",MERS-CoV,slightly improve the potency
COc1cccc(CNc2ccc3ncnc(Nc4cccc(Cl)c4)c3c2)c1 [Compound 8],"Inhibitory effect on MERS-CoV infection, in words",MERS-CoV,reduced potency compared to 1
COc1cccc(CNc2ccc3ncnc(Nc4ccc(F)cc4)c3c2)c1 [Compound 7],"Inhibitory effect on MERS-CoV infection, in words",MERS-CoV,reduced potency compared to 1
COc1cccc(CNc2ccc3ncnc(Nc4ccc(Br)cc4)c3c2)c1 [Compound 6],"Inhibitory effect on MERS-CoV infection, in words",MERS-CoV,maintained the potency
COc1cccc(CNc2ccc3ncnc(Nc4ccc(C#N)cc4)c3c2)c1 [Compound 9],"Inhibitory effect on MERS-CoV infection, in words",MERS-CoV,reduced potency compared to 1
N#Cc1cccc(CNc2ccc3ncnc(Nc4ccc(F)c(Cl)c4)c3c2)c1 [Compound 20],"Cytotoxicity, in words",CHO-K1,no cytotoxicity
same,Cytotoxicity CHO-K1,CHO-K1; Chinese hamster,>100 µM
same,"Cytotoxicity, in words",L929,no cytotoxicity
same,Cytotoxicity L929,L929; mouse,>100 µM
same,Cmax,in vivo,200 ng/mL
same,"Cytotoxicity, in words",NIH 3T3,no cytotoxicity
same,Cytotoxicity NIH 3T3,NIH 3T3; mouse,>100 µM
same,"hERG binding, in words",hERG,no hERG binding
same,"Microsomal stability, in words",[1],good microsomal stability
same,"Microsomal stability, in words",[2],good microsomal stability
same,"Cytotoxicity, in words",HFL-1,no cytotoxicity
same,Cytotoxicity HFL-1,HFL-1; human,>100 µM
same,"Cytotoxicity, in words",Vero,no cytotoxicity
same,Cytotoxicity Vero,Vero; African green monkey,>100 µM
N#Cc1ccccc1CNc1ccc2ncnc(Nc3ccc(F)c(Cl)c3)c2c1 [Compound 19],"Inhibitory effect on MERS-CoV infection, in words",MERS-CoV,no inhibitory effect
N#Cc1cccc(CNc2cc3c(Nc4ccc(F)c(Cl)c4)ncnc3cc2O)c1 [Compound 30],"Inhibitory effect on MERS-CoV infection, in words",MERS-CoV,no inhibitory effects
